From paper PMC10788915, “Fragment Merging, Growing, and Linking Identify New Trypanothione Reductase Inhibitors for Leishmaniasis” (Journal of Medicinal Chemistry, 2024)

Tests used:
[1] = target: T1, hGR (human glutathione reductase) (Homo sapiens, UniProt P00390); assay: hGR enzymatic inhibition assay (NADPH oxidation at 340 nm); type: biochemical; conditions: for IC50: 50 nM hGR, 100 μM NADPH, 25 °C; for SI (ratio of GR IC50/TR IC50): hGR versus LiTR
T1 construct: purchased Sigma-Aldrich
T1 sequence (P00390 44-522): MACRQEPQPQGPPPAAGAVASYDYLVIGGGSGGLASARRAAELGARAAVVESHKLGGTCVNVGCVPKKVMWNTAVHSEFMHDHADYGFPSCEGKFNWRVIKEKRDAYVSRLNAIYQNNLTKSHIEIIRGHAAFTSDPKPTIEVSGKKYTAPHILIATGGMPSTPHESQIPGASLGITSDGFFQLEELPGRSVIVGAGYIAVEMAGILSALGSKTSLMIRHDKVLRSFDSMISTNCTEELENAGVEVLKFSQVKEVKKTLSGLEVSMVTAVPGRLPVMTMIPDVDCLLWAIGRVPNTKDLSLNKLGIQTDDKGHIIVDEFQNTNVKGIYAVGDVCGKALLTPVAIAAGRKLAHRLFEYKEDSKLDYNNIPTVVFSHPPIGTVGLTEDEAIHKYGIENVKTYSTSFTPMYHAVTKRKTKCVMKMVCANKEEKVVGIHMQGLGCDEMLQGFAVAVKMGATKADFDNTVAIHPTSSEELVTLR
Procedure: (§1) Enzymatic inhibition assays were performed in 50 mM HEPES pH 7.4, 40 mM NaCl at 25 °C using a JASCO V650 spectrophotometer equipped with a JASCO EHC 716 Peltier element to ensure controlled temperature. The first experiment was carried out using 50 nM LiTR, 10 or 100 μM compound to be tested, 150 μM trypanothione (trypanothione disulfide purchased from Bachem), and 100 μM NADPH (tetrasodium salt, purchased from Calbiochem). The best inhibitor candidates were then tested at concentrations ranging from 1 nM to 250 μM to determine the IC50. Assays were initiated upon addition of 100 μM NADPH to 50 nM LiTR or hGR (human glutathione reductase purchased from Sigma-Aldrich) in the presence of different concentration of compounds and 150 μM trypanothione. For both experiments, the oxidation of NADPH was followed as a decrease in absorbance at 340 nm. For each concentration of compound, the initial velocity of the NADPH oxidation was used to determine the percentage of LiTR activity with respect to that in the absence of any compound. The IC50 was determined upon fitting the residual activity of TR as a dose–response logistic equation defined as ymin + (ymax – ymin)/(1 + (x/IC50)^slope). […] The Ki was determined graphically upon linear fitting of data points for each trypanothione concentration. Data analysis was performed with QtiPlot 0.9.8.9 svn 2288, and graphs were made with Matplotlib.
(§2) Figure S3. Inhibition assay of LiTR (red) and hGR (grey) with compounds 5-6, 9-10 and 14.
(§3) Enzymatic assays were carried out at 25°C on a JASCO V650 spectrophotometer equipped with a JASCO EHC716 Peltier unit. Compound concentrations used during the experiments range from 1 […]
(§4) higher than 30 µM and 20 µM, respectively. Briefly, 50 nM LiTR or hGR (Sigma Aldrich) were mixed in 50 mM HEPES pH 7.4, 40 mM NaCl with each compound and 150 µM trypanothione or glutathione. After 3-minute incubation at 25°C, the measurement was initiated upon addition of 100 µM NADPH. The oxidation of NADPH was followed as a decrease in absorbance at 340 nm. Each initial velocity of LiTR enzymatic reaction with the compounds was expressed as a percentage of residual activity with respect to that in the absence of compound. Each data point is the mean of two measurements. The IC50 was determined upon fitting the data as a dose response logistic equation defined by the Kaleidagraph software as ymin+(ymax-ymin)/(1+(x/IC50)^slope).
(§5) (1 picture or pasted object on this page, not shown here)

[2] = target: T2, Leishmania infantum TR (LiTR) (Leishmania infantum, UniProt A4HSF7); assay: LiTR enzymatic inhibition assay (NADPH oxidation at 340 nm); type: biochemical; conditions: for IC50: 50 nM LiTR, 150 μM trypanothione, 100 μM NADPH, 25 °C; for gain in LiTR IC50 with respect to 5: compared to compound 5 (IC50 54.6 μM); for remaining activity at 10 µM: compound at 10 μM, mean ± SD, n = 3, read-out: LiTR residual activity %
T2 construct: The TbTR and LiTR genes were subcloned in a pET28b vector; 6-His (cleaved yes); made in house; host or cells: E. coli BL21(DE3), pET28b
Procedure: as §1, §2, §3, §4, §5

[3] = Cytotoxicity assay on human THP-1-derived macrophages (MTT); type: cell-based; conditions: human, THP-1 cells differentiated into macrophages with PMA, 72 h, MTT; read-out: human THP-1-derived macrophage CC50 ± SE (95% CI)
Procedure: (§6) To assess the cytotoxicity of compounds on mammalian macrophages, we tested all the compounds against both human leukemia monocyte cell line (THP-1 cells, ATCC) differentiated into macrophages by treatment with 40 ng/mL of phorbol myristate acetate (PMA; Sigma) for 48 h and peritoneal exudate macrophages harvested from Balb/c mice. […] Cell viability was evaluated using the MTT assay, and the concentration of the compound that produced a 50% reduction of cell viability in treated culture cells with respect to untreated ones (CC50) was determined by GraphPad Prism 5.0 (GraphPad Software Inc., San Diego, USA). […] The selectivity index for each compound was calculated as the ratio of cytotoxicity (CC50) in macrophages cells to activity (IC50) against Leishmania axenic amastigotes. The experiments were performed in triplicate, and two independent experiments were conducted.

[4] = test system: human THP-1-derived macrophages; assay: as above; type: cell-based
Procedure: as §6

T2 sequence (A4HSF7 1-491): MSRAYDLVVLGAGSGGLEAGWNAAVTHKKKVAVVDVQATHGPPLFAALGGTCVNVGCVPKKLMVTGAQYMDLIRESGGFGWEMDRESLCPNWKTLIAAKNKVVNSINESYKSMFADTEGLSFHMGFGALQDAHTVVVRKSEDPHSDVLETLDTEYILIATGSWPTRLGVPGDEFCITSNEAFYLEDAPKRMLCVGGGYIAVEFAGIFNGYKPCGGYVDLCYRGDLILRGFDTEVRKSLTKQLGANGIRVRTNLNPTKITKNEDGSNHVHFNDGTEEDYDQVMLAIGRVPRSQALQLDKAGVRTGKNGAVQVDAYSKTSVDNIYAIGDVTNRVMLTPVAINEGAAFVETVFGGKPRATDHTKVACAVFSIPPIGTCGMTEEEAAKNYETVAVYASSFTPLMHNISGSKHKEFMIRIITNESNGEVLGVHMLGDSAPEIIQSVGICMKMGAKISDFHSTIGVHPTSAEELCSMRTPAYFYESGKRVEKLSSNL

SMILES	IC50 [1] [µM]	SI (ratio of GR IC50/TR IC50) [1]	IC50 [2] [µM]	gain in LiTR IC50 with respect to 5 [2]	remaining activity at 10 µM [2] [%]	CC50 at 72 h [3] [µM]	SI = human THP-1-derived macrophage CC50/axenic amastigote EC50 [4]
C[N+]1(CCCc2ccccc2)CCN(C(=O)N(Cc2ccc(C(=O)NCCc3ccc(F)cc3)o2)c2ccc(F)cc2)CC1.[I-] [Compound 9, 4-(((5-((4-Fluorophenethyl)carbamoyl)furan-2-yl)methyl)(4-fluorophenyl)carbamoyl)-1-methyl-1-(3-phenylpropyl)piperazin-1-ium Iodide]	62.4 ± 12.4	3.0	20.5 ± 2	about 3 fold	48.5 ± 7.9	38.4 ± 11	3.7
O=C(NCCc1ccc(F)cc1)c1ccc(CN(C(=O)N2CC[N+](CCCc3ccccc3)(Cc3ccc(Cl)c(Cl)c3)CC2)c2ccc(F)cc2)o1.[I-] [Compound 10, 1-(3,4-Dichlorobenzyl)-4-(((5-((4-fluorophenethyl)carbamoyl)furan-2-yl)methyl)(4-fluorophenyl)carbamoyl)-1-(3-phenylpropyl)piperazin-1-ium Iodide]	2.3 ± 0.1	1.7	1.31 ± 0.07	42 fold	22 ± 11.6	16 ± 2.4	1.4
O=C(NCCc1ccc(F)cc1)c1ccc(CNC(=O)N2CC[N+](CCCc3ccccc3)(Cc3ccc(Cl)c(Cl)c3)CC2)o1.[I-] [Compound 14, 1-(3,4-Dichlorobenzyl)-4-(((5-((4-fluorophenethyl)carbamoyl)furan-2-yl)methyl)carbamoyl)-1-(3-phenylpropyl)piperazin-1-ium Iodide]	3.7 ± 0.3	1.6	2.35 ± 0.21	23 fold	10.3 ± 2.8	20.5 ± 3.6	2.3
